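Values below derive from 48-hour exposures of cells grown in 96-well plates, with endpoints linearly interpolated between the two concentrations bracketing the appropriate inhibition level. At the GI50, growth is halved. At the TGI there is no net growth.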
Tests used:
Assay in all cases: growth of human tumour cells (NCI), 48 h
786-0 renal = system: 786-0 renal
A498 renal = system: A498 renal
A549 NSCLC = system: A549 NSCLC
ACHN renal = system: ACHN renal
BT-549 breast = system: BT-549 breast
CAKI-1 renal = system: CAKI-1 renal
CCRF-CEM leukemia = system: CCRF-CEM leukemia
COLO 205 colon = system: COLO 205 colon
DU-145 prostate = system: DU-145 prostate
EKVX NSCLC = system: EKVX NSCLC
HCC-2998 colon = system: HCC-2998 colon
HCT-116 colon = system: HCT-116 colon
HCT-15 colon = system: HCT-15 colon
HL-60(TB) leukemia = system: HL-60(TB) leukemia
HOP-62 NSCLC = system: HOP-62 NSCLC
HOP-92 NSCLC = system: HOP-92 NSCLC
HS 578T breast = system: HS 578T breast
HT29 colon = system: HT29 colon
IGROV1 ovarian = system: IGROV1 ovarian
K-562 leukemia = system: K-562 leukemia
KM12 colon = system: KM12 colon
LOX IMVI melanoma = system: LOX IMVI melanoma
M14 melanoma = system: M14 melanoma
MALME-3M melanoma = system: MALME-3M melanoma
MCF7 breast = system: MCF7 breast
MDA-MB-231 breast = system: MDA-MB-231 breast
MDA-MB-435 = system: MDA-MB-435
MDA-N = system: MDA-N
MOLT-4 leukemia = system: MOLT-4 leukemia
NCI-H226 lung = system: NCI-H226 lung
NCI-H23 lung = system: NCI-H23 lung
NCI-H460 lung = system: NCI-H460 lung
NCI-H522 lung = system: NCI-H522 lung
NCI/ADR-RES ovarian = system: NCI/ADR-RES ovarian
OVCAR-3 ovarian = system: OVCAR-3 ovarian
OVCAR-4 ovarian = system: OVCAR-4 ovarian
OVCAR-5 ovarian = system: OVCAR-5 ovarian
OVCAR-8 ovarian = system: OVCAR-8 ovarian
PC-3 prostate = system: PC-3 prostate
RPMI-8226 leukemia = system: RPMI-8226 leukemia
RXF 393 renal = system: RXF 393 renal
SF-268 CNS = system: SF-268 CNS
SF-295 CNS = system: SF-295 CNS
SF-539 CNS = system: SF-539 CNS
SK-MEL-2 melanoma = system: SK-MEL-2 melanoma
SK-MEL-28 melanoma = system: SK-MEL-28 melanoma
SK-MEL-5 melanoma = system: SK-MEL-5 melanoma
SK-OV-3 ovarian = system: SK-OV-3 ovarian
SN12C renal = system: SN12C renal
SNB-19 CNS = system: SNB-19 CNS
SNB-75 CNS = system: SNB-75 CNS
SR leukemia = system: SR leukemia
SW-620 colon = system: SW-620 colon
T-47D breast = system: T-47D breast
TK-10 renal = system: TK-10 renal
U251 CNS = system: U251 CNS
UACC-257 melanoma = system: UACC-257 melanoma
UACC-62 melanoma = system: UACC-62 melanoma
UO-31 renal = system: UO-31 renal
DLD-1 colon = system: DLD-1 colon
DMS 114 small cell lung = system: DMS 114 small cell lung
DMS 273 small cell lung = system: DMS 273 small cell lung
HOP-18 NSCLC = system: HOP-18 NSCLC
KM20L2 colon = system: KM20L2 colon
LXFL 529 NSCLC = system: LXFL 529 NSCLC
M19-MEL melanoma = system: M19-MEL melanoma
SNB-78 CNS = system: SNB-78 CNS
XF 498 CNS = system: XF 498 CNS

## Oc1cccc2ccc(SSc3ccc4cccc(O)c4n3)nc12
786-0 renal
  TGI: 40.4 µM
A498 renal
  TGI: 77.4 µM
A549 NSCLC
  TGI: > 100 µM
ACHN renal
  TGI: 29.7 µM
BT-549 breast
  TGI: 37.6 µM
CAKI-1 renal
  TGI: 37.3 µM
CCRF-CEM leukemia
  TGI: > 100 µM
COLO 205 colon
  TGI: 35.2 µM
DU-145 prostate
  TGI: > 100 µM
EKVX NSCLC
  TGI: > 100 µM
HCC-2998 colon
  TGI: 21.3 µM
HCT-116 colon
  TGI: 41.1 µM
HCT-15 colon
  TGI: 53.3 µM
HL-60(TB) leukemia
  TGI: 56.7 µM
HOP-62 NSCLC
  TGI: 39.9 µM
HOP-92 NSCLC
  TGI: 55.9 µM
HS 578T breast
  TGI: > 100 µM
HT29 colon
  TGI: 41.5 µM
IGROV1 ovarian
  TGI: 60.8 µM
K-562 leukemia
  TGI: > 100 µM
KM12 colon
  TGI: 29.5 µM
LOX IMVI melanoma
  TGI: 33.8 µM
M14 melanoma
  TGI: 33.3 µM
MALME-3M melanoma
  TGI: 30 µM
MCF7 breast
  TGI: 18.9 µM
MDA-MB-231 breast
  TGI: 32.3 µM
MDA-MB-435
  TGI: 37.5 µM
MDA-N
  TGI: 38.6 µM
MOLT-4 leukemia
  TGI: > 100 µM
NCI-H226 lung
  TGI: > 100 µM
NCI-H23 lung
  TGI: 31.2 µM
NCI-H460 lung
  TGI: 42.6 µM
NCI-H522 lung
  TGI: 38.2 µM
NCI/ADR-RES ovarian
  TGI: 65.6 µM
OVCAR-3 ovarian
  TGI: 34.7 µM
OVCAR-4 ovarian
  TGI: 34.2 µM
OVCAR-5 ovarian
  TGI: 41.4 µM
OVCAR-8 ovarian
  TGI: 36.3 µM
PC-3 prostate
  TGI: 29.9 µM
RPMI-8226 leukemia
  TGI: > 100 µM
RXF 393 renal
  TGI: 30.8 µM
SF-268 CNS
  TGI: 75.4 µM
SF-295 CNS
  TGI: 33.7 µM
SF-539 CNS
  TGI: 37.5 µM
SK-MEL-2 melanoma
  TGI: 39.9 µM
SK-MEL-28 melanoma
  TGI: 41.3 µM
SK-MEL-5 melanoma
  TGI: > 100 µM
SK-OV-3 ovarian
  TGI: 31.7 µM
SN12C renal
  TGI: 37 µM
SNB-19 CNS
  TGI: > 100 µM
SNB-75 CNS
  TGI: 34.9 µM
SR leukemia
  TGI: > 100 µM
SW-620 colon
  TGI: 96.4 µM
T-47D breast
  TGI: 38.6 µM
TK-10 renal
  TGI: 41.3 µM
U251 CNS
  TGI: 30 µM
UACC-257 melanoma
  TGI: 43.2 µM
UACC-62 melanoma
  TGI: 39.4 µM
UO-31 renal
  TGI: 83.9 µM

## C=C1C2CC(OC(C)=O)C3(C)C(c4ccoc4)OC(=O)[C@@H](O)[C@]13OC1C[C@H](OC(C)=O)C(C)(C)[C@H](C(O)C(=O)OC)[C@]12C (stereo partly drawn)
786-0 renal
  TGI: > 100 µM
A498 renal
  TGI: > 100 µM
A549 NSCLC
  TGI: > 100 µM
ACHN renal
  TGI: > 100 µM
CCRF-CEM leukemia
  TGI: > 100 µM
COLO 205 colon
  TGI: > 100 µM
DLD-1 colon
  TGI: > 100 µM
DMS 114 small cell lung
  TGI: > 100 µM
DMS 273 small cell lung
  TGI: > 100 µM
EKVX NSCLC
  TGI: > 100 µM
HCC-2998 colon
  TGI: > 100 µM
HCT-116 colon
  TGI: > 100 µM
HCT-15 colon
  TGI: > 100 µM
HL-60(TB) leukemia
  TGI: > 100 µM
HOP-18 NSCLC
  TGI: > 100 µM
HOP-92 NSCLC
  TGI: 57.6 µM
HT29 colon
  TGI: > 100 µM
IGROV1 ovarian
  TGI: > 100 µM
K-562 leukemia
  TGI: > 100 µM
KM12 colon
  TGI: > 100 µM
KM20L2 colon
  TGI: > 100 µM
LOX IMVI melanoma
  TGI: > 100 µM
LXFL 529 NSCLC
  TGI: > 100 µM
M14 melanoma
  TGI: > 100 µM
M19-MEL melanoma
  TGI: > 100 µM
MOLT-4 leukemia
  TGI: > 100 µM
NCI-H226 lung
  TGI: > 100 µM
NCI-H23 lung
  TGI: > 100 µM
NCI-H460 lung
  TGI: > 100 µM
OVCAR-3 ovarian
  TGI: > 100 µM
OVCAR-4 ovarian
  TGI: > 100 µM
OVCAR-8 ovarian
  TGI: > 100 µM
RPMI-8226 leukemia
  TGI: > 100 µM
SF-295 CNS
  TGI: > 100 µM
SF-539 CNS
  TGI: > 100 µM
SK-MEL-2 melanoma
  TGI: > 100 µM
SK-MEL-28 melanoma
  TGI: > 100 µM
SK-MEL-5 melanoma
  TGI: > 100 µM
SK-OV-3 ovarian
  TGI: > 100 µM
SN12C renal
  TGI: > 100 µM
SNB-19 CNS
  TGI: > 100 µM
SNB-75 CNS
  TGI: > 100 µM
SNB-78 CNS
  TGI: > 100 µM
SW-620 colon
  TGI: > 100 µM
TK-10 renal
  TGI: > 100 µM
U251 CNS
  TGI: > 100 µM
UACC-62 melanoma
  TGI: > 100 µM
UO-31 renal
  TGI: > 100 µM

## C[N+]1(CCNP(=S)(NCC[N+]2(C)Cc3c(ccc4c3OCO4)C3C2c2cc4c(cc2C[C@@H]3O)OCO4)NCC[N+]2(C)Cc3c(ccc4c3OCO4)C3C2c2cc4c(cc2C[C@@H]3O)OCO4)Cc2c(ccc3c2OCO3)C2C1c1cc3c(cc1C[C@H]2O)OCO3 (stereo partly drawn)
786-0 renal
  GI50: 5.22 µM
A498 renal
  GI50: 1.54 µM
A549 NSCLC
  GI50: 2.89 µM
ACHN renal
  GI50: 4.16 µM
CAKI-1 renal
  TGI: 69.5 µM
CCRF-CEM leukemia
  TGI: > 383 µM
COLO 205 colon
  GI50: 1.65 µM
DLD-1 colon
  GI50: 1.68 µM
DMS 273 small cell lung
  TGI: < 0.00191 µM
EKVX NSCLC
  GI50: 45.9 µM
HCC-2998 colon
  GI50: 5.22 µM
HCT-116 colon
  GI50: 1.43 µM
HCT-15 colon
  TGI: < 0.00191 µM
HL-60(TB) leukemia
  GI50: 1.02 µM
HOP-18 NSCLC
  GI50: 45.2 µM
HOP-62 NSCLC
  GI50: 7.52 µM
HOP-92 NSCLC
  GI50: 3.43 µM
HT29 colon
  GI50: 1.34 µM
IGROV1 ovarian
  GI50: 4.9 µM
K-562 leukemia
  GI50: 2.32 µM
KM12 colon
  GI50: 1.78 µM
KM20L2 colon
  GI50: 2.13 µM
LOX IMVI melanoma
  GI50: 1.92 µM
LXFL 529 NSCLC
  GI50: 2.75 µM
M14 melanoma
  TGI: < 0.00191 µM
M19-MEL melanoma
  GI50: 2.04 µM
MALME-3M melanoma
  GI50: 2.09 µM
NCI-H226 lung
  TGI: 79.6 µM
NCI-H23 lung
  GI50: 2.25 µM
NCI-H460 lung
  GI50: 0.976 µM
NCI-H522 lung
  GI50: 2.55 µM
OVCAR-3 ovarian
  GI50: 1.68 µM
OVCAR-4 ovarian
  GI50: 4.74 µM
OVCAR-5 ovarian
  TGI: < 0.00191 µM
OVCAR-8 ovarian
  TGI: < 0.00191 µM
RPMI-8226 leukemia
  TGI: < 0.00191 µM
RXF 393 renal
  GI50: 1.76 µM
SF-268 CNS
  GI50: 6.67 µM
SF-295 CNS
  GI50: 1.43 µM
SF-539 CNS
  GI50: 1.99 µM
SK-MEL-2 melanoma
  TGI: < 0.00191 µM
SK-MEL-28 melanoma
  GI50: 3.51 µM
SK-MEL-5 melanoma
  GI50: 1.89 µM
SK-OV-3 ovarian
  GI50: 2.96 µM
SN12C renal
  GI50: 3.84 µM
SNB-19 CNS
  GI50: 7.66 µM
SNB-75 CNS
  GI50: 1.18 µM
SNB-78 CNS
  GI50: 2.7 µM
SR leukemia
  GI50: 1.75 µM
SW-620 colon
  GI50: 1.4 µM
TK-10 renal
  GI50: 8.2 µM
U251 CNS
  GI50: 1.99 µM
UACC-257 melanoma
  GI50: 1.44 µM
UACC-62 melanoma
  GI50: 1.23 µM
UO-31 renal
  GI50: 4.3 µM
XF 498 CNS
  GI50: 0.846 µM

From PubChem BioAssay (NCI)
